How the values were obtained:
[1] = test system: ISP2 mRNA; test: Uterine ISP2 gene expression by in situ hybridization in hormone- or RU486-treated mice; type: in vivo, mouse; conditions: for induction of ISP2 gene expression: after ovariectomy without progesterone maintenance, up to 14 days; for maintenance of ISP2 gene expression: delayed implantation after ovariectomy
Protocol: All surgical procedures were carried out after the mice were anaesthetized with an i.p. injection of Avertin (2% (w/v) tribromoethanol; Aldrich Chemical Co. Milwaukee, Wis.). Ovariectomy was performed by dorsal-lateral incision (Hogan et al., 1994). Ovariectomized mice were allowed at least 1 wk for recovery before the induction of deciduomas. All steroid hormones including RU486 were dissolved in sesame oil and injected s.c. At each stage of the experiment, control mice were used which received only oil (0.1 ml/mouse) injections. The standard regimen for artificial induction of deciduomas (Finn, 1966) was modified to more closely mimic pseudo-pregnancy (Milligan, 1995). Here, the first progesterone treatment was started […] after exposure to oestrogen. This modified regimen consisted of 100 ng oestrogen daily starting on Day 0, and 1 mg progesterone plus 10 ng oestrogen from day three onward. Deciduomas were induced surgically on Day 5 (between 1400-1600 h) by injecting sesame oil (10 μl) into the lumen of one uterine horn from its oviductal tip. Injected and uninjected horns were collected 24, 48 or 72 hours later for histological sectioning and in situ hybridization analysis.
Delayed implantation was induced and maintained by ovariectomising mice on day 3 of pregnancy, followed by administration of progesterone (2 mg/mouse) on days 4 to 6. Subsequently, half these mice were treated with estrogen (25 ng/mouse) on the morning of the seventh day, while the other half received the normal progesterone injection. Mice were sacrificed 24 hours later for analysis by in situ hybridization.
The effect of steroids on uterine development in the absence of blastocysts was examined by ovariectomizing mice and treating them with hormone injections after a two week recovery period. They received injections of either progesterone (1 mg/mouse), estrogen (100 ng/mouse), or a combination of both (10 ng estrogen and 1 mg progesterone/mouse) for three days. Mice were then sacrificed on the morning of the fourth day. To further determine the importance of progesterone on ISP2 gene expression superovulated pregnant and pseudo-pregnant mice (Hogan et al., 1994) were treated with RU486 (400 μg/mouse) on the morning of the third day after a vaginal plug was detected. The mice were then sacrificed 24 hours later and their uterine horns were collected for in situ hybridization analysis.
Whole embryo RNA in situ hybridization using digoxigenin-labelled RNA probes was performed essentially as previously described (Rancourt and Rancourt, 1997). The ISP1 probe comprised the 478 bp RT-PCR subclone in pBSKS^+. The ISP2 probe also comprised a 478 by RT-PCR subclone in pBSKS^+. The antisense probes were synthesized using T3 polymerase after plasmid linearization with EcoRI. […]

[2] = test system: Mouse Blastocysts; test: In vitro blastocyst hatching after oligodeoxynucleotide administration; type: cell-based; conditions: for Percent Hatched over Time: 100 blastocysts; for effect on blastocyst hatching (in words): scored at 20, 30, 40 and 60 hours
Protocol: (§1) Morulae were collected from oviducts of superovulated, 2.5 day pregnant dams in M2 medium (Hogan et al., 1994). For hatching, morulae were cultured in microwells for approximately 24 hrs at 37° C., 5% CO2 in KSOMaa medium (Erbach et al., 1994). In embryo outgrowth, hatched blastocysts were cultured for an additional 48 hrs at 37° C., 5% CO2 in Dulbecco's Modified Eagle's Medium plus 5% (v/v) fetal bovine serum on microwells coated with extracellular matrix derived from 10% (v/v) Triton X-100-treated mouse embryo fibroblasts (Behrendtsen et al., 1995).
In antisense oligodeoxynucleotide studies, harvested blastocysts were placed in 0.001% (v/v) L-a-lysophosphatidylcholine for 60 seconds (Jones et al., 1997) and were transferred to microdrops equilibrated with 2.5 μM, 5 μM oligodeoxynucleotide or an equal volume of H2O (Behrendtsen et al., 1995). Two antisense oligodeoxynucleotides were designed against regions surrounding ISP1's initiation codon: AS1 (5′-[…]-3′; SEQ ID NO;13) situated upstream, AS2 (5′-[…]-3′; SEQ ID NO:14) lying downstream. A control oligodeoxynucleotide, SS1 (5′-[…]-3′; SEQ ID NO:15), represented the scrambled sense sequence surrounding the initiation codon. The oligodeoxynucleotides were designed using Oligo™ software and were synthesized and purified by Dr. Richard Pon, UC DNA Services (University of Calgary). Blastocysts were scored at 20, 30, 40, and 60 hours for progress in hatching. […] Following eight hours of treatment, some blastocysts were assayed for the presence of ISP1 transcripts using RT-PCR. Following 24 hours of treatment, some blastocysts were assayed for strypsin activity using histochemical staining. In outgrowth studies, blastocysts were allowed to hatch and then transferred to microdrops equilibrated with oligodeoxynucleotide or water. Progress in outgrowth was monitored over a period of 5 days.
A possible role for ISP1 in hatching was examined by determining whether ISP1 mRNA could be reduced in blastocysts by treatment with antisense oligodeoxynucleotides (Behrendtsen et al., 1995; Jones et al., 1997) and result in an alteration of the hatching process. Two antisense oligodeoxynucleotides were designed surrounding ISP1's initiation codon covering the region immediately upstream (AS1) and downstream (AS2). A control oligodeoxynucleotide (SS1) represented the scrambled sense sequence surrounding the initiation codon. Blastocysts were scored at 20, 30, 40, and 60 hours for progress in hatching.

[3] = test system: hatched blastocysts; test: Blastocyst outgrowth on extracellular matrix after hatching; type: cell-based, mouse; conditions: prehatched blastocysts in culture with oligodeoxynucleotide
Protocol: as §1
(§2) In antisense oligodeoxynucleotide studies, harvested blastocysts were placed in 0.001% (v/v) L-a-lysophosphatidylcholine for 60 seconds (Jones et al., 1997) and were transferred to microdrops equilibrated with 2.5 μM, 5 μM oligodeoxynucleotide or an equal volume of H2O (Behrendtsen et al., 1995). Two antisense oligodeoxynucleotides were designed against regions surrounding ISP1's initiation codon: AS1 (5′-[…]-3′; SEQ ID NO;13) situated upstream, AS2 (5′-[…]-3′; SEQ ID NO:14) lying downstream. A control oligodeoxynucleotide, SS1 (5′-[…]-3′; SEQ ID NO:15), represented the scrambled sense sequence surrounding the initiation codon. […] Blastocysts were scored at 20, 30, 40, and 60 hours for progress in hatching. […] Progress in outgrowth was monitored over a period of 5 days.

[4] = test system: strypsin; test: Histochemical staining of strypsin activity in blastocysts; type: cell-based, mouse; conditions: 24 hours of treatment
Protocol: Whole embryo RNA in situ hybridization using digoxigenin-labelled RNA probes was performed essentially as previously described (Rancourt and Rancourt, 1997). The ISP1 probe comprised the 478 bp RT-PCR subclone in pBSKS^+. The ISP2 probe also comprised a 478 by RT-PCR subclone in pBSKS^+. The antisense probes were synthesized using T3 polymerase after plasmid linearization with EcoRI. The sense probes were synthesized using T7 polymerase after plasmid linearization with BamHI. All experiments were performed with the sense RNA probe in parallel to detect non-specific hybridization. Histochemical staining of strypsin activity was performed essentially as outlined previously (Perona and Wassarman, 1986). Embryos were collected as early blastocysts in M2 medium, and were lightly fixed in 1.25% (w/v) glutaraldehyde in 0.25M sucrose, 50 mM sodium phosphate (pH7.5) for five min at 4° C. Following fixation, the blastocysts were placed in 50 mM sodium phosphate (pH7.5) containing the substrate N-α-benzoyl-DL-arginine β-napthylamide (0.56 mM; Sigma) and Fast Garnet GBC salt (1.86 mM; Sigma), were incubated for 5 min at room temperature and washed in 50 mM sodium phosphate (pH7.5).
as §2

[5] = test system: ISP1 transcripts; test: RT-PCR of ISP1 transcripts in oligodeoxynucleotide-treated blastocysts; type: cell-based, mouse; conditions: after eight hours of culture
Protocol: The presence of ISP1 transcripts in embryos and placentas was monitored using RT-PCR. Total RNA (1 μg) was reverse transcribed and amplified using ISP1 specific primers (ISP1 for 5′-[…]-3′; SEQ ID NO:9 and ISP1rev 5′-GTCAAAGATGGCCACAGC-3+: SEQ ID NO: 10) and forty rounds of thermal cycling (1 min at 94° C., 2 min at 60° C., and 2 min at 72° C.). The RT-PCR amplification of GAPDH (as a control for mRNA loading) is described elsewhere (Arcellana-Panlilio and Schultz, 1993). The predicted 175 and 380 bp amplification products were separated on a 2% (w/v) agarose gel.
as §2

CC(=O)[C@H]1CC[C@H]2[C@@H]3CCC4=CC(=O)CC[C@]4(C)[C@H]3CC[C@]12C [progesterone]
induction of ISP2 gene expression [1]: could be induced
maintenance of ISP2 gene expression [1]: normal ISP2 expression was observed

AS1: antisense oligodeoxynucleotide upstream of ISP1's initiation codon, 5′-TCTAACTACCGTCTAACAACG-3′; SEQ ID NO:13 (DNA, backbone and methylation of C not given here)
Percent Hatched over Time ([2]; 2.5 µM, 20 hours): 0%
Percent Hatched over Time ([2]; 2.5 µM, 30 hours): 0%
Percent Hatched over Time ([2]; 2.5 µM, 40 hours): 16%
Percent Hatched over Time ([2]; 2.5 µM, 60 hours): 37%
Percent Hatched over Time ([2]; 5.0 µM, 20 hours): 10%
Percent Hatched over Time ([2]; 5.0 µM, 30 hours): 10%
Percent Hatched over Time ([2]; 5.0 µM, 40 hours): 20%
Percent Hatched over Time ([2]; 5.0 µM, 60 hours): 20%
effect on blastocyst hatching (in words) [2]: interfered specifically with blastocyst hatching
time to adhere to extracellular matrix [3]: 5 days
strypsin activity at the abembryonic pole (histochemical) [4]: reduced strypsin activity
strypsin activity at the abembryonic pole (histochemical) ([4]; listed as antisense oligodeoxynucleotide): strypsin activity was absent
reduction of accumulation of ISP1 transcripts [5]: at least 100 fold

AS2: antisense oligodeoxynucleotide downstream of ISP1's initiation codon, 5′-GAACTCTTCTAACTACCGTCT-3′; SEQ ID NO:14 (DNA, backbone and methylation of C not given here)
Percent Hatched over Time ([2]; 2.5 µM, 20 hours): 0%
Percent Hatched over Time ([2]; 2.5 µM, 30 hours): 20%
Percent Hatched over Time ([2]; 2.5 µM, 40 hours): 35%
Percent Hatched over Time ([2]; 2.5 µM, 60 hours): 40%
Percent Hatched over Time ([2]; 5.0 µM, 20 hours): 0%
Percent Hatched over Time ([2]; 5.0 µM, 30 hours): 5%
Percent Hatched over Time ([2]; 5.0 µM, 40 hours): 35%
Percent Hatched over Time ([2]; 5.0 µM, 60 hours): 45%
effect on blastocyst hatching (in words) [2]: interfered specifically with blastocyst hatching

SS1: control oligodeoxynucleotide, scrambled sense sequence surrounding the ISP1 initiation codon, 5′-ACGGTAGTTAGAAGAGTTCT-3′; SEQ ID NO:15 (DNA, backbone and methylation of C not given here) [reference compound]
Percent Hatched over Time ([2]; 2.5 µM, 20 hours): 10%
Percent Hatched over Time ([2]; 2.5 µM, 30 hours): 16%
Percent Hatched over Time ([2]; 2.5 µM, 40 hours): 58%
Percent Hatched over Time ([2]; 2.5 µM, 60 hours): 90%
Percent Hatched over Time ([2]; 5.0 µM, 20 hours): 10%
Percent Hatched over Time ([2]; 5.0 µM, 30 hours): 39%
Percent Hatched over Time ([2]; 5.0 µM, 40 hours): 61%
Percent Hatched over Time ([2]; 5.0 µM, 60 hours): 77%
time to adhere to extracellular matrix [3]: 2 days
strypsin activity at the abembryonic pole (histochemical) [4]: localized strypsin activity was observed
ISP1 transcript levels (in words) ([5]; versus untreated controls): significant reduction was not observed

estrogen
induction of ISP2 gene expression [1]: did not have a stimulatory effect
maintenance of ISP2 gene expression [1]: not observed

Reference: US20060188903A1, “Implantation serine proteinases” (priority 2001, published 2006)
